{
  "source": "ChEMBL document CHEMBL5385929",
  "about": "“Tabersonine Enhances Olaparib Sensitivity through FHL1-Mediated Epithelial-Mesenchymal Transition in an Ovarian Tumor” (J Nat Prod, 2024)",
  "key": {"[1]": {"test_system": "A2780", "test": "Potentiation of olaparib sensitivity in human A2780 cells assessed as inhibition of cell viability at 10 uM measured after 5 days in presence of olaparib by CCK8 assay", "assay_type": "functional, cell-based", "details": "time 5.0 day"}, "[2]": {"test_system": "SK-OV-3", "test": "Synergistic antiproliferative activity against human SK-OV-3 cells assessed as combination index for reduction of cell viability in presence of olaparib by CCK8 assay", "assay_type": "functional"}, "[3]": {"test_system": "A2780", "test": "Potentiation of olaparib sensitivity in human A2780 cells assessed as inhibition of colony formation at 10 uM incubated for 48 hrs in presence of olaparib followed by drug wash-out and incubated in fresh medium for 2 weeks by crystal violet staining based analysis", "assay_type": "functional, cell-based"}, "[4]": {"test_system": "SK-OV-3", "test": "Potentiation of olaparib sensitivity in human SK-OV-3 cells assessed as induction of DNA damage response by measuring increase in tail moment at 10 uM measured after 48 hrs in presence of olaparib by alkaline comet assay", "assay_type": "functional, cell-based"}, "[5]": {"test": "Toxicity in BALB/c mouse xenografted with human A2780 cells assessed as animal's death at 30 mg/kg, ip administered every other day and measured on day 6", "assay_type": "organism-based", "details": "in vivo, 144 h, time 6 day"}, "[6]": {"test_system": "A2780", "test": "Antitumor activity against human A2780 cells xenografted in BALB/c mouse assessed as decrease in tumor growth at 5 to 15 mg/kg, ip administered every other day for 2 weeks", "assay_type": "functional, organism-based", "details": "dose 5-15 mg/kg"}, "[7]": {"test_system": "A2780", "test": "Downregulation of EMT signalling in human A2780 cells assessed as downregulation of vimentin protein expression at 10 uM by western blot analysis", "assay_type": "functional, cell-based"}, "[8]": {"test_system": "SK-OV-3", "test": "Downregulation of EMT signalling in human SK-OV-3 cells assessed as downregulation of N-cadherin protein expression at 10 uM by western blot analysis", "assay_type": "functional, cell-based"}, "[9]": {"test_system": "A2780", "test": "Potentiation of olaparib sensitivity in human A2780 cells assessed as downregulation of EMT signaling by measuring upregulation of E-cadherin protein expression at 10 uM in presence of olaparib by western blot analysis", "assay_type": "functional, cell-based"}, "[10]": {"test_system": "A2780", "test": "Potentiation of olaparib sensitivity in human A2780 cells assessed as downregulation of EMT signaling by measuring downregulation of N-cadherin protein expression at 10 uM in presence of olaparib by western blot analysis", "assay_type": "functional, cell-based"}, "[11]": {"test_system": "A2780", "test": "Potentiation of olaparib sensitivity in human A2780 cells assessed as downregulation of EMT signaling by measuring downregulation of vimentin protein expression at 10 uM in presence of olaparib by western blot analysis", "assay_type": "functional, cell-based"}, "[12]": {"test_system": "SK-OV-3", "test": "Potentiation of olaparib sensitivity in human SK-OV-3 cells assessed as downregulation of EMT signaling by measuring upregulation of E-cadherin protein expression at 10 uM in presence of olaparib by western blot analysis", "assay_type": "functional, cell-based"}, "[13]": {"test_system": "SK-OV-3", "test": "Potentiation of olaparib sensitivity in human SK-OV-3 cells assessed as downregulation of EMT signaling by measuring downregulation of N-cadherin protein expression at 10 uM in presence of olaparib by western blot analysis", "assay_type": "functional, cell-based"}, "[14]": {"test_system": "SK-OV-3", "test": "Inhibition of cell migration in human SK-OV-3 cells at 10 uM measured after 24 to 48 hrs by wound healing assay", "assay_type": "functional, cell-based", "details": "time 24-48 hrs"}, "[15]": {"test_system": "A2780", "test": "Increase in FHL1 protein stability in human A2780 cells at 10 uM measured after 6 to 24 hrs in presence of cycloheximide by CHX chase assay based western blot analysis", "assay_type": "functional, cell-based", "details": "time 6-24 hrs"}, "[16]": {"test_system": "A2780", "test": "Downregulation of EMT signalling in human A2780 cells transfected with shFHL1-1 RNA assessed as N-cadherin protein expression at 10 uM by western blot analysis", "assay_type": "functional, cell-based"}, "[17]": {"test_system": "A2780", "test": "Downregulation of EMT signalling in human A2780 cells transfected with shFHL1-1 RNA assessed as vimentin protein expression at 10 uM by western blot analysis", "assay_type": "functional, cell-based"}, "[18]": {"test_system": "SK-OV-3", "test": "Downregulation of EMT signalling in human SK-OV-3 cells transfected with shFHL1-2 RNA assessed as E-cadherin protein expression at 10 uM by western blot analysis", "assay_type": "functional, cell-based"}, "[19]": {"test_system": "SK-OV-3", "test": "Downregulation of EMT signalling in human SK-OV-3 cells transfected with shFHL1-2 RNA assessed as vimentin protein expression at 10 uM by western blot analysis", "assay_type": "functional, cell-based"}, "[20]": {"test_system": "A2780", "test": "Inhibition of cell invasion in human A2780 cells transfected with shFHL1-1 RNA at 10 uM measured after 48 hrs by Transwell assay", "assay_type": "functional, cell-based"}, "[21]": {"test_system": "A2780", "test": "Inhibition of cell invasion in human A2780 cells transfected with shFHL1-2 RNA at 10 uM measured after 48 hrs by Transwell assay", "assay_type": "functional, cell-based"}, "[22]": {"test_system": "A2780", "test": "Potentiation of olaparib sensitivity in human A2780 cells transfected with shFLH1-2 RNA assessed as downregulation of EMT signaling by measuring N-cadherin protein expression at 10 uM in presence of olaparib by western blot analysis", "assay_type": "functional, cell-based"}, "[23]": {"test_system": "SK-OV-3", "test": "Potentiation of olaparib sensitivity in human SK-OV-3 cells transfected with shFLH1-1 RNA assessed as downregulation of EMT signaling by measuring N-cadherin protein expression at 10 uM in presence of olaparib by western blot analysis", "assay_type": "functional, cell-based"}, "[24]": {"test_system": "SK-OV-3", "test": "Potentiation of olaparib sensitivity in human SK-OV-3 cells transfected with shFLH1-1 RNA assessed as downregulation of EMT signaling by measuring vimentin protein expression at 10 uM in presence of olaparib by western blot analysis", "assay_type": "functional, cell-based"}, "[25]": {"test_system": "SK-OV-3", "test": "Potentiation of olaparib sensitivity in human SK-OV-3 cells transfected with shFLH1-2 RNA assessed as downregulation of EMT signaling by measuring N-cadherin protein expression at 10 uM in presence of olaparib by western blot analysis", "assay_type": "functional, cell-based"}, "[26]": {"test_system": "SK-OV-3", "test": "Potentiation of olaparib sensitivity in human SK-OV-3 cells transfected with shFHL1-1 RNA assessed as inhibition of cell invasion at 10 uM measured after 48 hrs in presence of olaparib by Transwell assay", "assay_type": "functional, cell-based"}, "[27]": {"test_system": "A2780", "test": "Potentiation of olaparib sensitivity in human A2780 cells transfected with shFHL1-2 RNA assessed as inhibition of cell migration at 10 uM measured after 24 to 48 hrs in presence of olaparib by wound healing assay", "assay_type": "functional, cell-based", "details": "time 24-48 hrs"}, "[28]": {"test_system": "Mus musculus", "test": "Potentiation of olaparib sensitivity in BALB/c mouse xenografted with shNC RNA-transfected human A2780 cells assessed as upregulation of E-cadherin protein expression in tumor at 15 mg/kg, ip co-administered with olaparib for 2 weeks by western blot analysis", "assay_type": "functional, organism-based"}, "[29]": {"test_system": "Mus musculus", "test": "Potentiation of olaparib sensitivity in BALB/c mouse xenografted with shNC RNA-transfected human A2780 cells assessed as downregulation of N-cadherin protein expression in tumor at 15 mg/kg, ip co-administered with olaparib for 2 weeks by western blot analysis", "assay_type": "functional, organism-based"}, "[30]": {"test_system": "Mus musculus", "test": "Potentiation of olaparib sensitivity in BALB/c mouse xenografted with shNC RNA-transfected human A2780 cells assessed as downregulation of vimentin protein expression in tumor at 15 mg/kg, ip co-administered with olaparib for 2 weeks by western blot analysis", "assay_type": "functional, organism-based"}, "[31]": {"test_system": "Mus musculus", "test": "Potentiation of olaparib sensitivity in BALB/c mouse xenografted with shNC RNA-transfected human A2780 cells assessed as increase in FHL1 protein expression in tumor at 15 mg/kg, ip co-administered with olaparib for 2 weeks by immunohistochemistry", "assay_type": "functional, organism-based"}, "[32]": {"test_system": "A2780", "test": "Potentiation of olaparib-induced antitumor activity against shFHL1-1 RNA-transfected human A2780 cells xenografted in BALB/c mouse assessed as decrease in lung metastatic nodules at 15 mg/kg, ip co-administered with olaparib every other day from day 6 of tumor cell inoculation and measured on day 30 post-tumor cell inoculation by H and E staining based bright field microscopic analysis", "assay_type": "functional, organism-based", "details": "time 24.0 day"}},
  "note": "Activity calls are given as the source filed them. The calls are words filed in the database; no cut-off is given here.",
  "data": [
    {"smiles": "CC[C@]12C=CCN3CC[C@]4(C(=C(C(=O)OC)C1)Nc1ccccc14)[C@@H]32", "note": "[TABERSONINE]", "values": [
      {"measurement": "Activity", "setting": "[1]", "result": "Active"},
      {"measurement": "CI", "setting": "[2]", "result": "<1"},
      {"measurement": "Activity", "setting": "[3]", "result": "Active"},
      {"measurement": "Activity", "setting": "[4]", "result": "Active"},
      {"measurement": "Activity", "setting": "[5]", "result": "Toxic"},
      {"measurement": "Activity", "setting": "[6]", "result": "Active"},
      {"measurement": "inhibition", "setting": "[7]", "result": "Active"},
      {"measurement": "inhibition", "setting": "[8]", "result": "Active"},
      {"measurement": "Activity", "setting": "[9]", "result": "Active"},
      {"measurement": "Activity", "setting": "[10]", "result": "Active"},
      {"measurement": "Activity", "setting": "[11]", "result": "Active"},
      {"measurement": "Activity", "setting": "[12]", "result": "Active"},
      {"measurement": "Activity", "setting": "[13]", "result": "Active"},
      {"measurement": "inhibition", "setting": "[14]", "result": "Active"},
      {"measurement": "Activity", "setting": "[15]", "result": "Active"},
      {"measurement": "inhibition", "setting": "[16]", "result": "inactive"},
      {"measurement": "inhibition", "setting": "[17]", "result": "inactive"},
      {"measurement": "inhibition", "setting": "[18]", "result": "inactive"},
      {"measurement": "inhibition", "setting": "[19]", "result": "inactive"},
      {"measurement": "inhibition", "setting": "[20]", "result": "inactive"},
      {"measurement": "inhibition", "setting": "[21]", "result": "inactive"},
      {"measurement": "Activity", "setting": "[22]", "result": "inactive"},
      {"measurement": "Activity", "setting": "[23]", "result": "inactive"},
      {"measurement": "Activity", "setting": "[24]", "result": "inactive"},
      {"measurement": "Activity", "setting": "[25]", "result": "inactive"},
      {"measurement": "Activity", "setting": "[26]", "result": "inactive"},
      {"measurement": "Activity", "setting": "[27]", "result": "inactive"},
      {"measurement": "Activity", "setting": "[28]", "result": "Active"},
      {"measurement": "Activity", "setting": "[29]", "result": "Active"},
      {"measurement": "Activity", "setting": "[30]", "result": "Active"},
      {"measurement": "Activity", "setting": "[31]", "result": "Active"},
      {"measurement": "Activity", "setting": "[32]", "result": "inactive"}
    ]}
  ]
}
